Assays:
[1] = system: Early Growth Response 3 (EGR3); assay: RNA-Seq gene expression of EGR3 in keratinocytes; type: cell-based, Human; conditions: 100 μg/ml, 24 hr
Description: (§1) Cell Lines. Human adult dermal fibroblast and keratinocyte cell lines were treated with 11 different compound treatments (plus DMSO control as treatment #12). Primary cells were plated in cell specific media at 5K or 10K cells per cm^2. Cells were plated in 48 well plates in triplicate, one cell line per plate. Media volume was 500ul per well. Outer two columns of wells were not used. Cells were cultured for 2 days in 37° C. 5% CO2 incubator. After 48 hours all the cell cultures were uniform and appeared healthy, no appreciable number of floating dead cells or evidence of vacuolization of cells that might indicate apoptotic or dying cells.
(§2) Compounds. Stocks of compounds 1 through 8 on the list below were prepared in PBS at 100× the concentration indicated in red type. […] This stock was 100× of final concentration. A 20 mg/ml stock of compound 10 (CBD) was prepared in DMSO. […]
(§3) RNA lysate preparation. […] All samples were shipped frozen on dry ice for RNA extraction, library construction and sequencing to 25 M paired end 100 bp reads per sample.
(§4) RNA-Seq. All the RNA samples were shipped frozen on dry ice for RNA extraction, library construction and sequencing to 25 M paired end 100 bp reads per sample. Differentially expressed genes were identified and pathway enrichment was assessed using the Reactome Pathway.

Hyaluronidase 2 (HYAL2) = assay: RNA-Seq gene expression of HYAL2 in keratinocytes; type: cell-based, Human; conditions: 100 μg/ml, 24 hr
Description: as §1, §2, §3, §4

[2] = system: Hyaluronic Acid Synthase 2 (HAS2); assay: RNA-Seq gene expression of HAS2 in keratinocytes; type: cell-based, Human; conditions: 100 μg/ml, 24 hr
Description: as §1, §2, §3, §4

[3] = system: Hyaluronic Acid Synthase 2 (HAS2); assay: RNA-Seq gene expression of HAS2 in dermal fibroblasts; type: cell-based, Human; conditions: 100 μg/ml, 24 hr
Description: as §1, §2, §3, §4

Human dermal fibroblasts = assay: Octapeptide dose-response of high MW HA production (band density); type: cell-based; conditions: 72 hours
Description: Human dermal fibroblasts were treated with Octapeptide (1× and 10×; corresponding to 10 μg/ml and 100 μg/ml respectively) or left untreated. After 72 hours, the supernatant was collected, concentrated, run on an SDS-PAGE, stained and imaged. The experiment was conducted 4 times and the density of the bands from each supernatant were quantified (arbitrary units (AU)) using ImageJ. The data was graphed in FIG. 6 and represents the mean±standard deviation of the band densities for each treatment condition.

| Substance | upregulation of EGR3 gene expression relative to non-treated cells [1] | fold-change in HYAL2 gene expression relative to non-treated cells (Hyaluronidase 2 (HYAL2)) | fold-change in HAS2 gene expression relative to non-treated cells [2] | fold-change in HAS2 gene expression relative to non-treated cells [3] | production of high MW HA in dermal fibroblasts (Human dermal fibroblasts; 1× and 10× (10 μg/ml and 100 μg/ml)) | density of high MW HA band (ImageJ) (Human dermal fibroblasts; 10× Octapeptide (100 μg/ml), 4 experiments) |
| --- | --- | --- | --- | --- | --- | --- |
| Hexapeptide-11 | about seven | potent downregulation | excellent upregulation | – | – | – |
| Octapeptide: proprietary peptide designed by Alastin; in some embodiments octapeptide-45, amino acid sequence GPHGVREA (Gly-Pro-His-Gly-Val-Arg-Glu-Ala) | – | modest downregulation | – | excellent stimulation | dose-responsive increase | vast increase in signal density |

Reference: patent US20250032532A1, “COMBINATION OF OCTAPEPTIDE AND HIGH MOLECULAR WEIGHT HYALURONIC ACID FOR TOPICAL APPLICATION” (Alastin Skincare, Inc., priority 2022, published 2025)
